What was measured:
[1] = system: skin of subjects with sensitive skin; assay: Stinging test A, sensory irritation on the cheek of subjects with sensitive skin; type: in vivo, human; conditions: nonwoven fabric with 600 μL of 16.4 mM aqueous solution on the cheek, 30 seconds to 5 minutes; FIG. 2
Experimental: Those who met all of the following criteria were selected as subjects with sensitive skin.
The subjects selected were tested for Stinging test A according to the following method.
After washing face with a make-up remover and a face wash, conditioning was performed in an environment of a temperature of 23° C. and a humidity of 50% for 5 minutes or more. A 2 cm×5 cm piece of nonwoven fabric which was impregnated with 600 μL of a 16.4 mM aqueous solution of methyl p-hydroxybenzoate or p-hydroxybenzoic acid was contacted to the cheek. For sensory irritation that the subjects felt (sore, stinging, pricking, smart, hot, flushed) 30 seconds, 1 minute, 2 minutes, 3 minutes, and 5 minutes after the start of the contact, the subjects submitted scores (0: nothing felt, 0.5: slightly felt or slight discomfort, 1.0: a little discomfort, 1.5: a little to moderate discomfort, 2.0: moderate discomfort, 2.5: moderate to much discomfort, 3.0: much or unbearable discomfort). A value obtained by subtracting, from the highest score of all the scores after 30 seconds to 5 minutes, the highest score in a test performed in the same manner as above except for using distilled water was determined as the sensory irritation score, and the sensory irritation score was statistically analyzed by the Nilcoxon signed-rank test.

[2] = system: three-dimensional cultured human epidermis model; assay: IL-1α production in three-dimensional cultured human epidermis model (LabCyte EPI-MODEL 24); type: cell-based; conditions: 50 μL of 16.4 mM aqueous solution, cultured 6 hours, post-cultured 18 hours; FIG. 1
Experimental: LabCyte EPI-MODEL 24 (made by Japan Tissue Engineering Co., Ltd.) was used as a three-dimensional cultured human epidermis model. The culture insert was pre-cultured (5% CO2, 37° C.) in a 500 μL exclusive assay medium overnight, and the culture insert was transferred to a 24-well plate containing a fresh assay medium. 50 μL of a 16.4 mM aqueous solution of methyl p-hydroxybenzoate (MP) or p-hydroxybenzoic acid (PHBA) was added to the epidermal tissue in the culture insert, and the tissue was cultured for 6 hours. Then the culture insert was washed with phosphate buffer 10 times, and transferred to a 24-well plate containing a fresh assay medium, and post-cultured for 18 hours. After the post-culture, the amount of IL-1α in the medium was determined using Human IL-1 alpha/IL-1F1 Quantikine ELISA Kit (R&D Systems) according to the protocol attached.

CES1 = CES1 mRNA expression in normal human epidermal keratinocytes (real-time PCR, ΔΔ CT method); type: cell-based; conditions: 48 hours; for Relative gene expression level (with non treat as 1.0): CES1 mRNA, mean value ± SD, n = 3
Experimental: Normal human epidermal keratinocytes (Life Technologies Japan Ltd.) were seeded into a 6-well plate so that the number of cells in each well was […], and cultured in HuMedia-KG2 (KURABO INDUSTRIES LTD.) overnight. Then, an extract of broccoli sprouts (Broccoli Sprout Extract, Oryza Oil (. Fat Chemical Co., Ltd., for cosmetics) was added to the culture medium at a solid concentration of 0.0001 w/v % or 0.001 w/v %, and the cells were cultured for 48 hours. The ceils after culture was washed with D-PB3 (−) and RNA was extracted using RNeasy Mini Kits (QIAGEN) according to the manual attached. The RNA concentration was calculated by using NanoDrop 1000 (Thermo Fisher Scientific). Total RNA extracted was reverse-transcribed using High-Capacity RNA-to-cDNA Kit (Life Technologies Japan Ltd.), and then real-time PCR was performed using 7500 Fast Real-Time PCR System (Life Technologies Japan Ltd.). In the real-time PCR, the expression levels of CES1 mRNA were compared by the ΔΔ CT method using the above reverse transcribed cDNA and CES1, or, as an endogenous control, Tsqman primer for RPLP0 (Life Technologies Japan Ltd., CES1:Hs00275627-m1, RPLP0:HS00420695_gH), Taqma.n Gene Expression Master Mix (Life Technologies Japan Ltd.).
Normal human epidermal keratinocytes (Life Technologies Japan Ltd.) were seeded into a 6-well plate so that the number of cells in each well was […] and cultured in HuMedia-KG2 (KURABO INDUSTRIES LTD.) overnight. Then, suiforaphane (Sigma-Aldrich) was exposed to the cells so that the final concentration was 0.1, 1, and 10 μM, and the cells were cultured for 48 hours. The cells after culture was washed with a phosphate buffer (D-PBS (−)) and RNA was extracted using RNeasy Mini Kits (QIAGEN) according to the manual attached. The RNA concentration was calculated by using NanoDrop 1000 (Thermo Fisher Scientific). Total RNA extracted was reverse-transcribed using High-Capacity RNA-to-cDNA Kit (Life Technologies Japan Ltd.), and then real-time PCR was performed using 7500 Fast Real-Time PCR System (Life Technologies Japan Ltd.). In the real-time PCR, the expression levels of the gene were compared by the ΔΔ CT method using the above reverse transcribed cDNA and carboxylesterase 1, or, as an endogenous control, Taqman primer for RPLP0 (Life Technologies Japan Ltd., CES1:Hs00275627-m1, RPLP0:HS00420895_gH), Taqman Gene Expression Master Mix (Life Technologies Japan Ltd.).

amount of IL-1α in the medium [2]	SMILES	sensory irritation score [1]	Relative gene expression level (with non treat as 1.0) (CES1; sulforaphane 0.1 μM)	Relative gene expression level (with non treat as 1.0) (CES1; sulforaphane 1 μM)	Relative gene expression level (with non treat as 1.0) (CES1; sulforaphane 10 μM)	expression level of CES1 mRNA (CES1; sulforaphane 0.1, 1 and 10 μM, summary of Table 1)
	COC(=O)c1ccc(O)cc1 [MP, methyl p-hydroxybenzoate]	felt some irritation				
much smaller than that when MP was used	O=C(O)c1ccc(O)cc1 [PHBA, p-hydroxybenzoic acid]	very mild				
	C[S+]([O-])CCCCN=C=S (stereo not shown) [Sulforaphane, 4-(methylsulfinyl)butyl isothiocyanate]		1.5 ± 0.33	3.6 ± 0.90	35 ± 8.4	increased the expression level of CES1 mRNA

— patent US11969436B2, “Method for treating skin irritation caused by parabens” (Kao Corporation, priority 2017, dated 2024)
